# Source: patent publication US20040191297A1, “Carotenoid formulation” (priority 1997, published 2004)
# Experiments:
# [1] = Dietary lycopene stability, AIN-76A diet at 4 °C in the dark; format: physicochemical; conditions: for % (diet concentration 744 μg/g as 100%) / Lycopene concentration: 4 °C dark; for Lycopene concentration: AIN-76A diet
# Protocol: The stability of the lycopene suspension once incorporated into the diet was assessed in two ways. The first was by placing the diet containing the suspension at 4° C. in the dark for a period of 3 weeks (Table 8A,B).
# At various time points, a diet sample was taken and lycopene was extracted as follows: Approximately 0.5 to 1.0 g of sample was added to a 15 ml volume of extraction solvent consisting of 40% acetonitrile, 20% hexane, 20% methanol and 20% methylenechloride. The mixture was sonicated for 2 minutes and allowed to stand for 5 minutes. The reddish-orange clear supernatant was then decanted. This process was repeated 4 times, at which time the supernatant was colorless. Solvent was then added to a volume of 25 to 100 ml, the mixture centrifuged, and the supernatant decanted. All supernatants were then mixed. The above solvent serves two purposes; first, it is the most efficient mixture for lycopene, and second, it is the same solvent used for injecting lycopene samples into the HPLC.
# [2] = Ten-week MTD feeding study: weight gain and toxicity; format: in vivo
# Protocol: Inbred Fischer F344 males (n=70) and females (n=70) were obtained from Taconic Farms, Germantown, N.Y. At about 35 days of age, all animals were transferred to the experimental room from quarantine. The animals were then allocated into experimental groups using formal randomization methods to ensure that each group contained animals of the same mean weight.
# A ten-week pilot study was conducted as described in Table 2 & FIG. 2 to determine the maximal tolerated dose (MTD) for lycopene in both male (colon model) and female (breast model) rats. The choice of dose ranges was based on published values for β-carotene. A mixed carotenoid composition containing 5.7% carotenoids, including 3.7% pure lycopene was suspended in medium chain triglycerides (this composition will be referred to below as the “Lycopene Suspension”). The Lycopene Suspension was incorporated into the AIN-76A diet.
# Differences in the lipid content of the various treatment groups were controlled by supplementing their diets with appropriate amounts of Neobee® medium chain triglyceride (Stepan Co., Maywood, N.J.) such that all animals, including controls, received the same amount of dietary fat.
# Animal weights were recorded once per week and animal appearance (coat texture) and food avoidance behavior assessed. By concentration,
# the maximal tolerated dose is that dose which […] mean body weight loss.
smiles,measurement,setting,value
CC(C)=CCC/C(C)=C/C=C/C(C)=C/C=C/C(C)=C/C=C/C=C(C)/C=C/C=C(C)/C=C/C=C(\C)CCC=C(C)C [Lycopene],% (diet concentration 744 μg/g as 100%),[1]; 1 day,101%
same,% (diet concentration 744 μg/g as 100%),[1]; 8 days,98%
same,% (diet concentration 744 μg/g as 100%),[1]; 14 days,90%
same,% (diet concentration 744 μg/g as 100%),[1]; 21 days,72%
same,amount remaining relative to day 1,"[1]; 4 °C in the dark, 3 weeks",about 72%
same,decomposition,"[1]; 4 °C in the dark, two weeks",about 10%
same,stability in the diet,[1]; 21 days in the dark at 4 °C,stable
same,Lycopene concentration,[1]; 1 day in refrigerator,748 µg/g
same,Lycopene concentration,[1]; 8 days in refrigerator,728 µg/g
same,Lycopene concentration,[1]; 14 days in refrigerator,672 µg/g
same,Lycopene concentration,[1]; 21 days in refrigerator,534 µg/g
same,toxicity,"[2]; F-344 rat, dose range used",no evidence of lycopene toxicity
same,difference in weight gains between doses,[2]; analysis of variance for repeated measures,no difference
same,"weight gain difference, control vs supplemented rats",[2]; end of 10 weeks,≤ 10%
same,effect on food intake or weight gain,"[2]; male and female rats, dosage range used",no deleterious effect
